The source of these data is paper PMC7655034, “Identification of a dual TAOK1 and MAP4K5 inhibitor using a structure-based virtual screening approach” (Journal of Enzyme Inhibition and Medicinal Chemistry, 2020).

Molecules are shown by their SMILES. Several values for one entry are separate records, joined by “and”; a condition that tells them apart may be missing. Equal entries are not always repeated.

One assay has as its target T1, TAOK1 (Homo sapiens, UniProt Q7L7X3).
T1 construct: purchased Thermo Fisher Scientific (outsourced assay service)
T1 sequence (Q7L7X3 1-1001): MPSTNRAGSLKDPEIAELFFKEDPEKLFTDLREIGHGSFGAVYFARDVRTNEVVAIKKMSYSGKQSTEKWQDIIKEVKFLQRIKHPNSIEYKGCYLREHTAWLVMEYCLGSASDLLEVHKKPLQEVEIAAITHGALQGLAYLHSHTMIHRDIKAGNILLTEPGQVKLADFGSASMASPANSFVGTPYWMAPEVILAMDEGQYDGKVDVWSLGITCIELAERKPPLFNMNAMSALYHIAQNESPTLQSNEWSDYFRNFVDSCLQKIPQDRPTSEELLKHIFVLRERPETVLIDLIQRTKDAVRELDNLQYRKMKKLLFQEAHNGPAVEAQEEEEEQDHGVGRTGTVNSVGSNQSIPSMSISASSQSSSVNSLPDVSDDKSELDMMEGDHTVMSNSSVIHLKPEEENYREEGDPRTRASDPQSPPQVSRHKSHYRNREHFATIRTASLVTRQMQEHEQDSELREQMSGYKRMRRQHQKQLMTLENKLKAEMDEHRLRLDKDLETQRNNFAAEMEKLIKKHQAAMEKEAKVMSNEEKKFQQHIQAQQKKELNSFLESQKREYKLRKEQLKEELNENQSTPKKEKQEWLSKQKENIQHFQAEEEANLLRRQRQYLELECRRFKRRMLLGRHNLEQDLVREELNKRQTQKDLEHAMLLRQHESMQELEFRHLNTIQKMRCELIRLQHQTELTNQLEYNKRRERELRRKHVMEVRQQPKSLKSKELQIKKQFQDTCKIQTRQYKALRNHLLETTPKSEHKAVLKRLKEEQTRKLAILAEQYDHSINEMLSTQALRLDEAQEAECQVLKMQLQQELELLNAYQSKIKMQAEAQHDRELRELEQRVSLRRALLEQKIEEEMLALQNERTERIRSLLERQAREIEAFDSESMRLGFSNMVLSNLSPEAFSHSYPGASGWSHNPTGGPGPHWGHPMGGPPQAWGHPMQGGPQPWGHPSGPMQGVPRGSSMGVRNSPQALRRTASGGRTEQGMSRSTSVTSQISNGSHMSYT
The assay is described as follows: Enzymatic assay (LanthaScreen, Thermo Fisher). It is filed as biochemical. As to conditions: for inhibition at 10 µM / Inhibition percentage at 10 μM TAOK1: 10 μM compound, average of two replicates; for inhibition at 10 µM: read-out: Inhibition percentage at 10 μM TAOK1. How it is done:
(§1) The enzymatic assay was outsourced to Thermo Fisher Scientific to conduct. They used LanthaScreen and Z´-LYTE technology, which were both robust homogeneous assays method by Fluorescence Resonance Energy Transfer (FRET) to evaluate TAOK1 and MAP4K5, respectively. Briefly, the test compound was co-incubated with fluorescein-labelled substrate, kinase, ATP, kinase buffer and development reagent for reaction. After 1 h, the stop solution (EDTA) was added and then the results were determined by a fluorescence reader. The data was shown as an average of two replicates.

For the next assay, the target named is T2, MAP4K5 (Homo sapiens, UniProt Q9Y4K4).
T2 construct: purchased Thermo Fisher Scientific (outsourced assay service)
T2 sequence (Q9Y4K4 whole entry): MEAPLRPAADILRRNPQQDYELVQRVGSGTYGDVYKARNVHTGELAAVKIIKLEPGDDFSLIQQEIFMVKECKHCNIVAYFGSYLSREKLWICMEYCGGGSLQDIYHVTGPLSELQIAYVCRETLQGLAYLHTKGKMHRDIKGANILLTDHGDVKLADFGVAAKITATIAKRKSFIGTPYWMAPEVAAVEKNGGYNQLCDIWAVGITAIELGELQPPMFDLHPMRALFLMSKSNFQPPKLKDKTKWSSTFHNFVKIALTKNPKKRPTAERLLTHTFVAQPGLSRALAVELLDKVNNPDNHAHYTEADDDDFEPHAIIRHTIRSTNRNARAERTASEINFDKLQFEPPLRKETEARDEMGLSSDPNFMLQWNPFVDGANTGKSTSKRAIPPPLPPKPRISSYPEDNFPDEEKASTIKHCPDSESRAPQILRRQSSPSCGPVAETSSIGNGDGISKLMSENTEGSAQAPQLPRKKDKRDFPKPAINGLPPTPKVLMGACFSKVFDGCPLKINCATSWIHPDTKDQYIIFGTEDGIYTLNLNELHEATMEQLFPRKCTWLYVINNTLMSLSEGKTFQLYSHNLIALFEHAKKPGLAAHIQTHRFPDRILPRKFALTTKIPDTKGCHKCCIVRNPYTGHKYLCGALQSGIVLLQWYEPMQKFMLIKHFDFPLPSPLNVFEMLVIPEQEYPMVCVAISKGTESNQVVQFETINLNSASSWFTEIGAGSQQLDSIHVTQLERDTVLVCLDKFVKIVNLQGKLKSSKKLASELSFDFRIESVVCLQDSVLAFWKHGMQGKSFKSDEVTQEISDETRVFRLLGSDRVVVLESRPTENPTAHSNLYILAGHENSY
The assay is described as follows: Enzymatic assay (Z'-LYTE, Thermo Fisher). It is filed as biochemical. Conditions: for inhibition at 10 µM / Inhibition percentage at 10 μM MAP4K5: 10 μM compound, average of two replicates; for inhibition at 10 µM: read-out: Inhibition percentage at 10 μM MAP4K5. How it is done: as §1

The subject of the next assay is HCT116, HT29 and H1299. The assay is described as follows: Single-concentration SRB and MTT assays in cancer cell lines. It is filed as cell-based, Human. As to conditions: for Effect in cell-based experiments: HCT116, HT-29, H1299. As to the method: (§2) Human colorectal cancer cell lines HCT116, HT-29 and human lung cancer cell line, H1299 were purchased from the Bioresource Collection and Research Centre (BCRC, Taiwan) and were incubated either in McCoy’s 5 A medium or RPMI-1640 medium (Thermo Fisher Scientific, Walthma, MA, USA), supplemented with 10% foetal bovine serum and 1% Penicillin-Streptomycin-Amphotericin B Solution (Biological Industries, Kibbutz Beit-Haemek, Israel) at 37 °C in a humidified atmosphere with 5% CO2.
(§3) Cell viability was determined by MTT (3–(4,5-dimethylthiazol-2-yl)-2,5-diphenyltetrazolium bromide, Sigma Chemical Co, St. Louis, MO, USA) assay. Cells were seeded in 96-well plates at a density of 5,000 cells/well in a regular culture medium overnight. Then, the cells were treated with various concentrations of indicated compounds for 72 h. After that, the medium was removed, 100 µL MTT solution (0.5 mg/ml in phosphate-buffered saline, PBS) was added to each well and then incubated for 1 h at 37 °C. The insoluble formazan dyes, representing the active mitochondrial dehydrogenase in live cells, were dissolved in the dimethyl sulfoxide (DMSO). The absorbance was analysed by an ELISA reader (Beckman Coulter, Brea, CA, USA) at 550 nm.
(§4) SRB (sulforhodamine B, Sigma Chemical Co, St Louis, MO, USA) assay was used to analyse cell proliferation. Cells were seeded in 96-well plates at a density of 5000 cells/well and then treated with various concentrations of indicated compounds for 48 h. Cells were fixed with 10% TCA (trichloroacetic acid), washed with PBS, and stained with 100 µL SRB solution (0.4% SRB in 1% acetic acid) for 15 min. Then, cells were washed three times with 1% acetic acid and dissolved in the trizma base solution (10 mM). The absorbance was measured by an ELISA reader (Beckman Coulter Diagnostics, Brea, CA, USA) at […].
For orientation: Tetrazolium assays rely on reduction of a dye to a coloured formazan, in cell work by metabolically active cells.

Assay [1] concerns panel of around 70 kinases. The assay is described as follows: Kinase selectivity (Thermo Fisher SelectScreen kinome panel). It is filed as biochemical. As to conditions: concentration selected based on IC50 values. As to the method: The kinase selectivity of selected compounds was performed by Thermo Fisher Select Screen service. A kinome screen occurred across a panel of roughly 70 kinases. Conditions and analyses are available online (www.thermofisher.com/selectscreen).
To evaluate the selectivity of the inhibitors identified in this study, a biochemical assay was conducted by ThermoFisher Scientific. A panel of around 70 kinases from different kinase families as well as all available members of the STE kinase family, was selected for testing (Supplemental Figure 3). The concentration of the compound was selected based on their IC50 values. […] The target kinase in this study, MAP4K5 and TAOK1, belong to the STE20 kinase family. Of the kinases inhibited by compounds 1 and 2, we found eight and three of the kinases to belong to the STE20 kinase family. Together, this implies that the inhibitors identified in this study are selective towards the STE20 kinase family.

Assay [2] has as its system HT29 cells. The assay is described as follows: SRB cell proliferation assay. As to conditions: Homo sapiens, HT-29, 48 h, read-out: GI50 (50% of growth inhibition). It is filed as cell-based. How it is done:
as §2, §4

Assay [3] relates to H1299 cells. The assay is described as follows: SRB cell proliferation assay. It is filed as cell-based. As to conditions: Homo sapiens, NCI-H1299, 48 h, read-out: GI50 (50% of growth inhibition). How it is done: as §2, §4
Assay [4] deals with HCT116 cells. The assay is described as follows: SRB cell proliferation assay. It is filed as cell-based. Conditions: Homo sapiens, HCT-116, 48 h, read-out: GI50 (50% of growth inhibition). As to the method: as §2, §4
Assay [5] concerns HT29 cells. Briefly: MTT cell viability assay. It is filed as cell-based. As to conditions: Homo sapiens, HT-29, 72 h, read-out: IC50 (cell survival). How it is done: as §2, §3
The subject of assay [6] is H1299 cells. Briefly: MTT cell viability assay. It is filed as cell-based. As to conditions: Homo sapiens, NCI-H1299, 72 h, read-out: IC50 (cell survival). As to the method: as §2, §3
The subject of assay [7] is HCT116 cells. The assay is described as follows: MTT cell viability assay. It is filed as cell-based. Conditions: Homo sapiens, HCT-116, 72 h, read-out: IC50 (cell survival). How it is done: as §2, §3
For a further assay, the system named is HT-29 cells. The assay is described as follows: Cell cycle distribution by flow cytometry. It is filed as cell-based, Human. How it is done: The cell cycle distribution was measured by flow cytometry. HT-29 cells were treated with or without the indicated concentrations of compound 1 for 24 or 48 h or 72 h. The cells were harvested by trypsinizing and fixed in ice-cold 75% ethanol for 1 h at −20 °C. The samples were washed with PBS and resuspended in the proper amount of DNA extraction buffer, containing 0.2 M Na2HPO4 and 0.1 M citric acid pH 7.8, for 30 min. Then the cells were washed again with PBS and stained with propidium iodide solution containing 100 µg/ml RNaseA, 80 µg/ml propidium iodide and 0.1% Triton X-100, which were all in PBS. Finally, cell cycle distribution was determined and performed by utilising BD Accuri™ and C6 Software (BD Biosciences, Franklin Lakes, NJ, USA).
On the technique in general: A flow cytometer gives signals particle by particle.

As usually defined, the inhibition is the share of the control response that was lost under treatment. For the compound `Nc1nnc(N)c2nc(-c3ccccc3)c(-c3ccccc3)nc12` [Compound 4], the inhibition at 10 µM at TAOK1 is 19%; at MAP4K5 it was 54%.
For orientation: IC50 means the concentration that gives 50% inhibition. For `Nc1ncnc2nc(-c3ccc(C(=O)c4ccc([N+](=O)[O-])cc4)cc3)[nH]c12` [Compound 3], in the assay on HCT116, HT29 and H1299, the “Effect in cell-based experiments” value is on record as “limited effects”. In addition, the “Number of kinases inhibited in panel” value in [1] is reported as 23 kinases. Moreover, at TAOK1, the IC50 amounted to 5.3 µM, the “Inhibition percentage at 10 μM TAOK1” value was 63% and the inhibition at 10 µM is at least 50%. Also, at MAP4K5, the IC50 is 6.28 µM, the “Inhibition percentage at 10 μM MAP4K5” value was determined as 51% and the inhibition at 10 µM is at least 50%.
As a reminder, the GI50 is the concentration at which growth is held to half of that of the control. Take `CCN1CCN(CCNc2nccc(-c3c(-c4cccc(O)c4)nc4sccn34)n2)S1(=O)=O` [Compound 1]: in the assay with HCT116, HT29 and H1299 (10 µM for 48 h (SRB), 30 µM for 72 h (MTT), HCT116, HT29, H1299), the “Cancer cell proliferation (SRB) at 10 µM and survival (MTT) at 30 µM” value is recorded as “significantly inhibited”. Besides, the GI50 in the assay with HT29 cells [2] turned out to be 6.8 µM; with H1299 cells [3], 19.2 µM; with HCT116 cells [4], 3.9 µM. The “Number of inhibited kinases belonging to the STE20 kinase family” value in [1] was “eight”. For the same compound, the “Number of kinases inhibited in panel” value in [1] is listed as “nine”. Further, the half-inhibitory concentration (IC50) on TAOK1 amounted to 4.15 µM; with HT29 cells [5], 13.3 µM; with H1299 cells [6] it was 23.6 µM; in the assay with HCT116 cells [7] it was 13.3 µM; against MAP4K5, 2.25 µM. The “Inhibition percentage at 10 μM TAOK1” value on TAOK1 was ≥ 50% and 74%. In addition, the “Number of G0/G1-phase cells” value in the assay on HT-29 cells (HT29, 24 h treatment) is “increased in a concentration-dependent manner”. Besides, in the assay on HT-29 cells (HT-29, 24 h), the Cell cycle effect entry is “arrested cancer cells at the G0/G1 phase”. The “Inhibition percentage at 10 μM MAP4K5” value on MAP4K5 was ≥ 50% and 84%.
On to `O=C(Nc1nc2ccccc2[nH]1)c1ccc(C(=O)Nc2nc3ccccc3[nH]2)cc1` [Compound 5], for which the results for the inhibition at 10 µM at TAOK1 and at MAP4K5 were 1% and 44%, respectively.
Taken in the same sequence, the figures for `CC1=C(C(=O)Nc2cccc3c2C(=O)NC3=O)CC(C(=O)Nc2cccc3c2C(=O)NC3=O)=C(C)N1` [Compound 7] were 4% and 47%.
With `Nc1nc(N)c2nc(-c3ccc(O)cc3)c(-c3ccc(O)cc3)nc2n1` [Compound 2], the “Effect in cell-based experiments” value in the assay on HCT116, HT29 and H1299 is “limited effects”. Besides, in assay [1], the “Number of inhibited kinases belonging to the STE20 kinase family” value is “three” and the “Number of kinases inhibited in panel” value is recorded as “five”. Moreover, at TAOK1, the IC50 came to 1.83 µM; the “Inhibition percentage at 10 μM TAOK1” value was ≥ 50% and 84%. Also, at MAP4K5, half-maximal inhibition (IC50) required 2 µM; the “Inhibition percentage at 10 μM MAP4K5” value is ≥ 50% and 77%.
For the compound `CC(=O)Nc1ccc(Nc2nc(Cl)nc(Nc3ccc(NC(C)=O)cc3)n2)cc1` [Compound 6], the inhibition at 10 µM at TAOK1 was 12%; at MAP4K5, 41%.
